Assay results reported in patent US11450805B2, “Compound, semiconductor material, and methods for manufacturing coating and semiconductor using the same” (Merck Patent GmbH, priority 2016, dated 2022).

Assay: Evaluation of solubility of solute in solvents (visual inspection)
Assay type: physicochemical
Conditions: stirring at room temperature for 60 minutes; for Solubility, solvent PGME:EL = 7:3: PGME:EL = 7:3 volume ratio; for Solubility, solvent PGME:PGMEA = 7:3: PGME:PGMEA = 7:3 volume ratio
Method: Comparative compound 1 was added as a solute to each of the various solvents listed in Table 1 in an amount of 10% by mass, and mixed with the solvent by stirring at room temperature for 60 minutes. When 10% by mass of the solute was not fully dissolved in the solvent, the amount of the solute added was changed to 1% by mass, and 1% by mass of the solute was mixed with the solvent in the same manner as above.
The state of dissolution of the solute was visually inspected and evaluated as follows.
A: Even when the amount of the solute mixed with the solvent was 10% by mass, the solute was fully dissolved.
B: When the amount of the solute mixed with the solvent was 10% by mass, the solute was not fully dissolved and some of it remained undissolved, while when the amount of the solute mixed with the solvent was 1% by mass, the solute was fully dissolved.
C: Even when the amount of the solute mixed with the solvent was 1% by mass, the solute was not fully dissolved and some of it remained undissolved.
Experiments were conducted in the same manner as above, except for changing the solute from comparative compound 1 to other compounds listed in Table 1.

SMILES: c1ccc(-c2c(-c3ccccc3)c(-c3ccccc3)c(-c3ccc(-c4c(-c5ccccc5)c(-c5ccccc5)c(-c5ccccc5)c(-c5ccccc5)c4-c4ccccc4)cc3)c(-c3ccccc3)c2-c2ccccc2)cc1 [Comparative compound 1, reference compound]
- Solubility, solvent PGME:EL = 7:3: C (Even when the amount of the solute mixed with the solvent was 1% by mass, the solute was not fully dissolved and some of it remained undissolved.)
- Solubility, solvent PGME:PGMEA = 7:3: C (Even when the amount of the solute mixed with the solvent was 1% by mass, the solute was not fully dissolved and some of it remained undissolved.)
- Solubility, solvent PGME: C (Even when the amount of the solute mixed with the solvent was 1% by mass, the solute was not fully dissolved and some of it remained undissolved.)

SMILES: Oc1ccc(-c2c(-c3ccccc3)c(-c3ccccc3)c(-c3ccc(-c4c(-c5ccccc5)c(-c5ccccc5)c(-c5ccc(O)cc5)c(-c5ccc(O)cc5)c4-c4ccccc4)cc3)c(-c3ccccc3)c2-c2ccc(O)cc2)cc1 [G1]
- Solubility, solvent PGME:EL = 7:3: A (Even when the amount of the solute mixed with the solvent was 10% by mass, the solute was fully dissolved.)
- Solubility, solvent PGME:PGMEA = 7:3: A (Even when the amount of the solute mixed with the solvent was 10% by mass, the solute was fully dissolved.)
- Solubility, solvent PGME: A (Even when the amount of the solute mixed with the solvent was 10% by mass, the solute was fully dissolved.)

SMILES: Oc1ccc(-c2c(-c3ccccc3)c(-c3ccccc3)c(-c3c4ccccc4c(-c4c(-c5ccccc5)c(-c5ccccc5)c(-c5ccc(O)cc5)c(-c5ccc(O)cc5)c4-c4ccccc4)c4ccccc34)c(-c3ccccc3)c2-c2ccc(O)cc2)cc1 [G2]
- Solubility, solvent PGME:EL = 7:3: A (Even when the amount of the solute mixed with the solvent was 10% by mass, the solute was fully dissolved.)
- Solubility, solvent PGME:PGMEA = 7:3: A (Even when the amount of the solute mixed with the solvent was 10% by mass, the solute was fully dissolved.)
- Solubility, solvent PGME: A (Even when the amount of the solute mixed with the solvent was 10% by mass, the solute was fully dissolved.)

SMILES: Oc1ccc(-c2c(-c3ccccc3)cc(-c3ccc(-c4cc(-c5ccccc5)c(-c5ccc(O)cc5)c(-c5ccc(O)cc5)c4-c4ccccc4)cc3)c(-c3ccccc3)c2-c2ccc(O)cc2)cc1 [G3]
- Solubility, solvent PGME:EL = 7:3: A (Even when the amount of the solute mixed with the solvent was 10% by mass, the solute was fully dissolved.)
- Solubility, solvent PGME:PGMEA = 7:3: A (Even when the amount of the solute mixed with the solvent was 10% by mass, the solute was fully dissolved.)
- Solubility, solvent PGME: A (Even when the amount of the solute mixed with the solvent was 10% by mass, the solute was fully dissolved.)

SMILES: Oc1ccc(-c2c(-c3ccc(O)cc3)c(-c3ccc(O)cc3)c(-c3ccc(O)cc3)c(-c3ccc(O)cc3)c2-c2ccc(O)cc2)cc1 [G5]
- Solubility, solvent PGME:EL = 7:3: A (Even when the amount of the solute mixed with the solvent was 10% by mass, the solute was fully dissolved.)
- Solubility, solvent PGME:PGMEA = 7:3: A (Even when the amount of the solute mixed with the solvent was 10% by mass, the solute was fully dissolved.)
- Solubility, solvent PGME: A (Even when the amount of the solute mixed with the solvent was 10% by mass, the solute was fully dissolved.)

SMILES: Oc1ccc(-c2c(-c3ccccc3)c(-c3ccccc3)c(-c3ccc(-c4ccc(-c5c(-c6ccccc6)c(-c6ccccc6)c(-c6ccc(O)cc6)c(-c6ccc(O)cc6)c5-c5ccccc5)cc4)cc3)c(-c3ccccc3)c2-c2ccc(O)cc2)cc1 [G6]
- Solubility, solvent PGME:EL = 7:3: A (Even when the amount of the solute mixed with the solvent was 10% by mass, the solute was fully dissolved.)
- Solubility, solvent PGME:PGMEA = 7:3: A (Even when the amount of the solute mixed with the solvent was 10% by mass, the solute was fully dissolved.)
- Solubility, solvent PGME: A (Even when the amount of the solute mixed with the solvent was 10% by mass, the solute was fully dissolved.)

SMILES: Oc1ccc(-c2c(-c3ccccc3)c(-c3ccccc3)c(-c3c(-c4ccccc4)c(-c4c(-c5ccccc5)c(-c5ccccc5)c(-c5ccc(O)cc5)c(-c5ccc(O)cc5)c4-c4ccccc4)c(-c4ccccc4)c(-c4c(-c5ccccc5)c(-c5ccccc5)c(-c5ccc(O)cc5)c(-c5ccc(O)cc5)c4-c4ccccc4)c3-c3ccccc3)c(-c3ccccc3)c2-c2ccc(O)cc2)cc1 [G7]
- Solubility, solvent PGME:EL = 7:3: B (When the amount of the solute mixed with the solvent was 10% by mass, the solute was not fully dissolved and some of it remained undissolved, while when the amount of the solute mixed with the solvent was 1% by mass, the solute was fully dissolved.)
- Solubility, solvent PGME:PGMEA = 7:3: B (When the amount of the solute mixed with the solvent was 10% by mass, the solute was not fully dissolved and some of it remained undissolved, while when the amount of the solute mixed with the solvent was 1% by mass, the solute was fully dissolved.)
- Solubility, solvent PGME: A (Even when the amount of the solute mixed with the solvent was 10% by mass, the solute was fully dissolved.)

SMILES: Nc1ccc(-c2c(-c3ccccc3)c(-c3ccccc3)c(-c3ccccc3)c(-c3ccccc3)c2-c2ccc(N)cc2)cc1 [G8]
- Solubility, solvent PGME:EL = 7:3: A (Even when the amount of the solute mixed with the solvent was 10% by mass, the solute was fully dissolved.)
- Solubility, solvent PGME:PGMEA = 7:3: A (Even when the amount of the solute mixed with the solvent was 10% by mass, the solute was fully dissolved.)
- Solubility, solvent PGME: A (Even when the amount of the solute mixed with the solvent was 10% by mass, the solute was fully dissolved.)

SMILES: COc1ccc(-c2c(-c3ccccc3)c(-c3ccccc3)c(-c3ccc(-c4c(-c5ccccc5)c(-c5ccccc5)c(-c5ccc(OC)cc5)c(-c5ccc(OC)cc5)c4-c4ccccc4)cc3)c(-c3ccccc3)c2-c2ccc(OC)cc2)cc1 [Intermediate G0, reference compound]
- Solubility, solvent PGME:EL = 7:3: C (Even when the amount of the solute mixed with the solvent was 1% by mass, the solute was not fully dissolved and some of it remained undissolved.)
- Solubility, solvent PGME:PGMEA = 7:3: C (Even when the amount of the solute mixed with the solvent was 1% by mass, the solute was not fully dissolved and some of it remained undissolved.)
- Solubility, solvent PGME: C (Even when the amount of the solute mixed with the solvent was 1% by mass, the solute was not fully dissolved and some of it remained undissolved.)
